This is an account of results in US10899754B2, “Modulators of indoleamine 2,3-dioxygenase” (GLAXOSMITHKLINE INTELLECTUAL PROPERTY DEVELOPMENT LIMITED, priority 2016, dated 2021).

Each structure is given as a SMILES string. Read-outs that look alike come from different tables or passages of the source. Bounds are passed on as bounds.

The target in one data set is T1, ePL tagged IDO1 (Homo sapiens, UniProt P14902).
T1 construct: expressed in transfected cells; host or cells: HeLa cells transduced with BacMam virus
Kind of data set: CETSA (Cellular Thermal Shifting assay) in Hela cells. The format is binding. The settings on record: BacMam ePL tagged IDO1, 3 hours at 37° C., heated at 53° C. for 3 min. As for the experimental part:
Cellular Thermal Shifting assays were used to directly monitor the ligand binding to target proteins in cells. Hela cells were transduced with BacMam virus expressing ePL tagged IDO1 overnight. The cells were then plated over the compounds for 3 hours at 37° C. in cell culture medium containing 1% FBS. The plates were then sealed and heated at 53° C. for 3 min. InCell Hunter reagents were added and luminescence was read in 90 min.

Data set [1] has as its system human peripheral blood mononuclear cells (PBMC). Put plainly: PBMC cytotoxicity assay (CellTiter-Glo). The format is cell-based. The following applies: 2 days, pCC50. An outline of the steps:
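% cytotoxicity was taken from CellTiter-Glo luminescence, using wells without cells and stimulated DMSO wells as references, and fitted by four-parameter curve to give XC50. Cells were human PBMC at 50,000 per well, activated with 100 ng/ml IFN-γ plus 50 ng/ml LPS. Incubation with 11-point, 3-fold dilution series ran for 2 days at 37 °C.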
(In general: ATP-based viability assays read luminescence as a measure of living cells.)

Data set [2] has as its target T2, indoleamine 2, 3-dioxygenase (IDO1) (Homo sapiens, UniProt P14902). Kind of data set: IDO1 PBMC RapidFire MS assay (kynurenine detection by mass spectrometry). The format is cell-based. The settings on record: human PBMC stimulated with IFN-γ and LPS, 2 days; for IC50: pIC50, read-out: PBMC PXC50 (converted). On the set-up: to induce the expression of indoleamine 2, 3-dioxygenase (IDO1); host or cells: human PBMC stimulated with IFN-gamma and LPS. An outline of the steps:
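Kynurenine output, read by RapidFire mass spectrometry as ratio to an internal standard, was measured after 2-day compound exposure (11-point, 3-fold dilutions) of human PBMCs induced with 100 ng/ml IFN-γ and 50 ng/ml LPS. Cell viability tracked alongside via ATP luminescence; XC50 from curve fitting.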

The subject of another data set is PAN02 pancreatic cells. The following applies: orally dosed, cited from earlier work.
The subject of the next data set is naive CD4+CD25- T cells. The following applies: co-culture with DCs; cited from earlier work.
The test system of data set [3] is human epithelial HeLa cells. Kind of data set: HeLa cytotoxicity assay (CellTiter-Glo). The class given is cell-based. The settings on record: pCC50. Put shortly:
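Read-out is CellTiter-Glo luminescence after 2 days at 37 °C, on IFN-γ-stimulated (10 nM) HeLa cells seeded at 5,000/well with compounds in 11-point 3-fold dose series. pCC50 from four-parameter curve fit; wells without cells set 100% cytotoxicity, stimulated cells with DMSO set 0%.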

Data set [4] concerns the target T2, indoleamine 2, 3-dioxygenase (IDO1). Put plainly: IDO1 HeLa RapidFire MS assay (kynurenine detection by mass spectrometry). Details: to induce the expression of indoleamine 2, 3-dioxygenase (IDO1). The following applies: HeLa cells, pIC50, read-out: IDO1_HELA_PXC50 (converted). The format is cell-based. An outline of the steps:
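Compound potency reported as pIC50 from kynurenine/internal-standard ratio (RapidFire MS) in supernatant of IFN-γ-induced (10 nM) HeLa cells, 5,000 per well, after 2 days' treatment with 11-point dilutions. Cytotoxicity in the same format by luminescent ATP detection, reported as pCC50.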

T1 sequence (P14902 whole entry): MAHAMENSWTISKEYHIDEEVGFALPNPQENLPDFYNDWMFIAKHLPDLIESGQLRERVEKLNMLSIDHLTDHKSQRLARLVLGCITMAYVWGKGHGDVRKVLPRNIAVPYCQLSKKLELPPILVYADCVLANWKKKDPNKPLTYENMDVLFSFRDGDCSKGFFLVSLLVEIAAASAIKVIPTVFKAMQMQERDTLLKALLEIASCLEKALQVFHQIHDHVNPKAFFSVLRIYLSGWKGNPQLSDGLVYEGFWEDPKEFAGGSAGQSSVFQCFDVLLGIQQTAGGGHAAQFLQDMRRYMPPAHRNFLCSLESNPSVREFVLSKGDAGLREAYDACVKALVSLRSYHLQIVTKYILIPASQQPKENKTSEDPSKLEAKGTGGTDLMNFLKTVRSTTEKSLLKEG
T2 sequence (P14902 whole entry): as above

Consider `CC(C)CN(c1ccc([C@H](C)CC(=O)O)cc1Nc1ccc(C#N)cn1)C1CCOCC1` [Example 16, (R)-3-(3-((5-cyanopyridin-2-yl)amino)-4-(isobutyl(tetrahydro-2H-pyran-4-yl)amino)phenyl)butanoic Acid], for which the EC50 on ePL tagged IDO1 (read-out: pXC50_1 (converted)) was 257 nM; at ePL tagged IDO1 (read-out: pXC50_2 (converted)), 316 nM. The “PBMC TOX PXC50” value in data set [1] is below 5. Besides, the IC50 in data set [2] is 1.58 nM.
As to `CC(C)CN(CC(C)C)c1ccc(C2(CC(=O)O)CC2)cc1Nc1nc(C(F)(F)F)ns1` [Example 110, 2-(1-(4-(diisobutylamino)-3-((3-(trifluoromethyl)-1,2,4-thiadiazol-5-yl)amino)phenyl)cyclopropyl)acetic Acid], at ePL tagged IDO1, the pXC50_1 is listed as 6.89 and the pXC50_2 is 6.86. The “PBMC TOX PXC50” value in data set [1] is 5.2. Besides, the “PBMC PXC50” value in data set [2] (pIC50) was found to be 8.5.
With `NS(=O)(=O)NCCNc1nonc1C(=NO)Nc1ccc(F)c(Br)c1` [INCB204360, epacadostat], the “Inhibition of tumor growth” value in the data set on PAN02 pancreatic cells (PAN02 pancreatic cells, immunocompetent mice) is given as “significant dose-dependent inhibition of tumor growth”. In addition, the Effect against tumor result with PAN02 pancreatic cells (same tumor (PAN02) implanted in immune-deficient mice) is listed as “without effect”. Besides, the “Conversion of naive CD4+CD25- T cells into CD4+FoxP3+ Tregs” value in the data set on naive CD4+CD25- T cells was “blocked the conversion”.
Consider `CC(C)CN(c1ccc([C@H](C)CC(=O)O)cc1Nc1ccc(Cl)nc1)C1CCOCC1` [Example 6, (R)-3-(3-((6-chloropyridin-3-yl)amino)-4-(isobutyl(tetrahydro-2H-pyran-4-yl)amino)phenyl)butanoic Acid], for which the EC50 was 13.8 nM at ePL tagged IDO1 (read-out: pXC50_1 (converted)) and 20.9 nM at ePL tagged IDO1 (read-out: pXC50_2 (converted)). Also, the “PBMC TOX PXC50” value in data set [1] is given as below 5. The IC50 in data set [2] is 0.631 nM.
In the case of `CO[C@H]1CC[C@@H](N(CC(C)C)c2ccc([C@H](C)CC(=O)O)cc2Nc2nc(C(F)(F)F)n[nH]2)CC1` [Example 51], the EC50 at ePL tagged IDO1 (read-out: pXC50_1 (converted)) was 1.7 nM. Also, the “PBMC TOX PXC50” value in data set [1] is on record as below 5. Moreover, the IC50 in data set [2] is 1.58 nM.
In the case of `CC(C)CC(=O)N1CCC(N(CC(C)C)c2ccc([C@H](C)CC(=O)O)cc2Nc2nc(C(F)(F)F)ns2)CC1` [Example 67, (R)-3-(4-(isobutyl(1-(3-methylbutanoyl)piperidin-4-yl)amino)-3-((3-(trifluoromethyl)-1,2,4-thiadiazol-5-yl)amino)phenyl)butanoic Acid], the EC50 is 72.4 nM on ePL tagged IDO1 (read-out: pXC50_1 (converted)) and 50.1 nM on ePL tagged IDO1 (read-out: pXC50_2 (converted)). For the same compound, the “PBMC TOX PXC50” value in data set [1] is below 5. Further, the IC50 in data set [2] is 2 nM.
Regarding `CC(C)CN(c1ccc(-c2ccccc2C(=O)NCCCCCN)cc1Nc1nc(C(F)(F)F)ns1)C1CCCCC1` [example 283, N-(5-aminopentyl)-4′-[cyclohexyl(2-methylpropyl)amino]-3′-{[3-(trifluoromethyl)-1,2,4-thiadiazol-5-yl]amino}-[1,1′-biphenyl]-2-carboxamide], the EC50 at ePL tagged IDO1 (read-out: pXC50_1 (converted)) was above 100000 nM. Further, the HELA_IDO1_TOX_PXC50 in data set [3] is below 5. In data set [4], the IC50 is 5010 nM.
`CC(C)CN(c1ccc([C@H](C)CC(=O)O)cc1Nc1ccc(Cl)nn1)C1CCOCC1` [Example 11, (R)-3-(3-((6-chloropyridazin-3-yl)amino)-4-(isobutyl(tetrahydro-2H-pyran-4-yl)amino)phenyl)butanoic Acid]: the EC50 at ePL tagged IDO1 (read-out: pXC50_1 (converted)) is 112 nM; on ePL tagged IDO1 (read-out: pXC50_2 (converted)) it was 191 nM. The “PBMC TOX PXC50” value in data set [1] is below 5. Moreover, the IC50 in data set [2] is 1 nM.
Regarding `CC(C)CN(c1ccc([C@H](C)CC(=O)O)cc1Nc1nc(C(F)(F)F)ns1)[C@H]1CC[C@H](O)CC1` [Example 44, (R)-3-(4-(((1r,4R)-4-hydroxycyclohexyl) (isobutyl)amino)-3-((3-(trifluoromethyl)-1,2,4-thiadiazol-5-yl)amino)phenyl)butanoic Acid], the EC50 at ePL tagged IDO1 (read-out: pXC50_1 (converted)) was 1.7 nM. Moreover, the “PBMC TOX PXC50” value in data set [1] is on record as below 5. The IC50 in data set [2] is 0.631 nM.
Regarding `CC(C)CN(c1ccc([C@H](C)CC(=O)O)cc1Nc1cccc(C(F)(F)F)n1)C1CCCCC1` [example 172, (3R)-3-{4-[cyclohexyl(2-methylpropyl)amino]-3-{[6-(trifluoromethyl)pyridin-2-yl]amino}phenyl}butanoic acid], in data set [1], the “PBMC TOX PXC50” value was below 5. For the same compound, the values for the IC50 in data set [2] and in data set [4] were 39.8 nM and 79.4 nM, respectively. In data set [3], this compound gave an HELA_IDO1_TOX_PXC50 below 5.
